The supplement of paper PMC5908809

Legend:
Assay in all cases: relative IC50 (inflection point of fitted viability curve, relative to fitted max inhibition); higher = less sensitive
Settings in all cases: 72 h
SNK-6 (IL-2 2.5 ng/mL) = tested on: SNK-6 (IL-2 2.5 ng/mL)
Method: (§1)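 Drug sensitivity and resistance testing: 5 concentrations over a 10,000-fold range, 72 h at 37 °C, viability by CellTiter-Glo normalised to DMSO and benzethonium chloride controls. IC50 is the inflection point of a logistic fit (min fixed at 0, max fitted), so it is relative to the fitted maximal inhibition. Kept only where fitted max inhibition is at least 50%.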

KHYG-1 (IL-2 2.5 ng/mL) = tested on: KHYG-1 (IL-2 2.5 ng/mL)
Method: as §1

KAI3 (IL-2 2.5 ng/mL) = tested on: KAI3 (IL-2 2.5 ng/mL)
Method: as §1

DERL-7 (IL-2 2.5 ng/mL) = tested on: DERL-7 (IL-2 2.5 ng/mL)
Method: as §1

NK-YS (IL-2 2.5 ng/mL) = tested on: NK-YS (IL-2 2.5 ng/mL)
Method: as §1

[1] = tested on: normal primary NK cells, pool 1 (3 donors) (IL-2 2.5 ng/mL)
Method: as §1

NKL (IL-2 2.5 ng/mL) = tested on: NKL (IL-2 2.5 ng/mL)
Method: as §1

IMC-1 (IL-2 20 ng/mL) = tested on: IMC-1 (IL-2 20 ng/mL)
Method: as §1

[2] = tested on: normal primary NK cells, pool 3 (3 donors) (IL-2 2.5 ng/mL)
Method: as §1

NK-92 (IL-2 2.5 ng/mL) = tested on: NK-92 (IL-2 2.5 ng/mL)
Method: as §1

YT (IL-2 2.5 ng/mL) = tested on: YT (IL-2 2.5 ng/mL)
Method: as §1

[3] = tested on: normal primary NK cells, pool 1 (3 donors), resting (IL-2 0 ng/mL)
Method: as §1

[4] = tested on: normal primary NK cells, pool 2 (3 donors) (IL-2 2.5 ng/mL)
Method: as §1

| SMILES | relative IC50 (SNK-6 (IL-2 2.5 ng/mL)) [nM] | relative IC50 (KHYG-1 (IL-2 2.5 ng/mL)) [nM] | relative IC50 (KAI3 (IL-2 2.5 ng/mL)) [nM] | relative IC50 (DERL-7 (IL-2 2.5 ng/mL)) [nM] | relative IC50 (NK-YS (IL-2 2.5 ng/mL)) [nM] | relative IC50 [1] [nM] | relative IC50 (NKL (IL-2 2.5 ng/mL)) [nM] | relative IC50 (IMC-1 (IL-2 20 ng/mL)) [nM] | relative IC50 [2] [nM] | relative IC50 (NK-92 (IL-2 2.5 ng/mL)) [nM] | relative IC50 (YT (IL-2 2.5 ng/mL)) [nM] | relative IC50 [3] [nM] | relative IC50 [4] [nM] |
| --- | --- | --- | --- | --- | --- | --- | --- | --- | --- | --- | --- | --- | --- |
| CCS(=O)(=O)c1cccc(-c2cc(C(=O)NC3CCN(C)CC3)c(C)c3[nH]c4ncc(C)cc4c23)c1 [TAK-901] | 135 | 208 | 116 | 50.2 | 30.8 | 303 | 105 | 116 |  |  |  |  |  |
| CC1=C(/C=C/C(C)=C/C=C/C(C)=C/C(=O)O)C(C)(C)CCC1 [Tretinoin] |  |  |  |  |  |  |  | > 10000 | > 10000 |  |  |  |  |
| O=C(Nc1ccncc1)C(=O)c1cn(Cc2ccc(Cl)cc2)c2ccccc12 [Indibulin] | 2.97 | 103 | 45 | 922 | 77.7 | > 10000 | 85.6 | 339 |  | 48.5 | 131 |  |  |
| CCOC(=O)CCNc1cc(N2CCc3ccccc3CC2)nc(-c2ccccn2)n1 [GSK-J4] | 3020 | 1740 | 3340 | 2480 | 3320 | 2100 | 3370 | 1230 | 2110 | 837 | 2670 | 1280 | 3280 |
| Cc1sc2c(c1C)C(c1ccc(Cl)cc1)=N[C@@H](CC(=O)Nc1ccc(O)cc1)c1nnc(C)n1-2 [OTX015] | 43 | 145 | 437 | 48.1 | 229 | 171 | 75.2 | 630 | 804 |  | 241 |  | 393 |
| NC(=O)c1ccc(I)c([N+](=O)[O-])c1 [Iniparib] |  |  |  |  |  | 1620 |  |  |  |  |  | 1360 |  |
| COC(=O)C[C@](O)(CCCC(C)(C)O)C(=O)O[C@@H]1C(OC)=C[C@]23CCCN2CCc2cc4c(cc2[C@H]13)OCO4 [Omacetaxine] | 6.73 | 35.2 | 6.32 | 7.54 | 30.7 | 6.62 | 29.8 | 33.6 | 10.6 | 25.7 | 17.5 | 1.15 | 5.02 |
| FC(F)(F)c1ccc(/C=C/c2nc(COc3ccc(CCCCn4ccnn4)cc3)co2)cc1 [Mubritinib] |  | 45.7 |  |  | 42 | 12.2 | 56 | 11.2 |  |  |  | 12 |  |
| CC(=O)c1c(C)c2cnc(Nc3ccc(N4CCNCC4)cn3)nc2n(C2CCCC2)c1=O [Palbociclib] |  | 279 | 3090 | 1380 | 413 | 3580 | 1550 | 2620 | 3430 | 1780 |  | 4040 | 2850 |
| CC1(C)CCC(CN2CCN(c3ccc(C(=O)NS(=O)(=O)c4ccc(NCC5CCOCC5)c([N+](=O)[O-])c4)c(Oc4cnc5[nH]ccc5c4)c3)CC2)=C(c2ccc(Cl)cc2)C1 [Venetoclax] | 34.8 | 1280 | 7.28 | 211 | 1450 | 859 | 115 |  |  | 1730 | 415 | 8.76 |  |
| NCC(=O)Nc1ccc(-n2nc(C(F)(F)F)cc2-c2ccc3c(ccc4ccccc43)c2)cc1 | 3810 | 1310 | 4900 |  | 1980 |  | 4070 | 4370 | 7230 | 4950 | 5540 |  | 7200 |
| O=c1[nH]c(=O)n([C@H]2C[C@H](O)[C@@H](CO)O2)cc1F [Floxuridine] | 68.6 | 8.42 | 10.1 | 31 | 28.9 |  | 75.2 | 128 | > 10000 | 19.5 | 286 |  |  |
| Cc1c2oc3c(C)ccc(C(=O)N[C@@H]4C(=O)N[C@H](C(C)C)C(=O)N5CCC[C@H]5C(=O)N(C)CC(=O)N(C)[C@@H](C(C)C)C(=O)O[C@@H]4C)c3nc-2c(C(=O)N[C@@H]2C(=O)N[C@H](C(C)C)C(=O)N3CCC[C@H]3C(=O)N(C)CC(=O)N(C)[C@@H](C(C)C)C(=O)O[C@@H]2C)c(N)c1=O [Dactinomycin] | 0.27 | 2.49 | 4.77 | 1.43 | 0.55 | 13.4 | 0.68 | 12.2 | 12.7 | 24.7 | 0.98 | 4.39 | 5.98 |
| Cc1[nH]c2ccccc2c1CCNCc1ccc(/C=C/C(=O)NO)cc1 [Panobinostat] | 14.3 | 16.3 | 5.94 | 12.5 | 17.4 | 12.9 | 8.13 | 29.9 | 13.5 | 13.4 | 21.2 | 5.89 | 7.38 |
| Cc1cc(Nc2cc(CN3CCOCC3)c3nc(C)c(Cc4ccc(Cl)cc4F)n3n2)n[nH]1 [Gandotinib] | 230 | 107 | 89.6 | 163 | 260 | 362 | 75 | 1260 | 669 | 236 | 448 |  | 183 |
| CN(c1ncccc1CNc1nc(Nc2ccc3c(c2)CC(=O)N3)ncc1C(F)(F)F)S(C)(=O)=O | 2870 | 1090 | 1930 | 2000 | 1310 | 2320 | 1540 | 2960 | 3740 | 3040 | 1530 | 4770 | 3440 |
| C[C@@H]1C=C2C(=O)O[C@@H]3CC[C@H](C1)[C@]23O [Galiellalactone] | 3970 | 5240 | 3340 | 3110 | 3660 | 4800 |  |  | 7360 | 5040 | 8550 | 3720 | 5560 |
| CCOc1cc2ncc(C#N)c(Nc3ccc(OCc4ccccn4)c(Cl)c3)c2cc1NC(=O)/C=C/CN(C)C [Neratinib] |  |  |  | 216 |  |  |  |  |  | 206 |  | 364 |  |
| CNC(=O)c1ccc(N2C(=S)N(c3ccc(C#N)c(C(F)(F)F)c3)C(=O)C2(C)C)cc1F [Enzalutamide] |  |  | > 10000 | > 10000 |  |  |  |  | > 10000 |  |  |  |  |
| O=C(/C=C/c1cccnc1)NCCCCC1CCN(C(=O)c2ccccc2)CC1 [Daporinad] | 0.75 | 3.01 | 3.88 | 1.27 | 0.77 | 0.52 | 2.57 | 3.61 | 0.87 | 6.07 | 6.27 | 0.29 | 0.63 |
| O=C1NC(=O)/C(=C/c2ccc3nccc(-c4ccncc4)c3c2)S1 | 1100 | 681 | 846 | 543 | 810 | 749 | 644 |  | 1650 | 1200 | 529 | 116 | 1250 |
